Measurements reported in patent publication US6566380B2, “Potassium channel inhibitors” (ICAgen, Inc., priority 2000, dated 2003).
Like-named read-outs stand apart in the source and are kept apart here.

Molecular target: Kv1.5 potassium channel (Homo sapiens, UniProt P22460)
Experiment: Electrophysiological studies: whole-cell patch clamp of Kv1.5 currents in CHO cells
Type: cell-based
Conditions: Chinese hamster ovary cells stably expressing Kv1.5, whole-cell voltage clamp
Procedure: Electrophysiological recordings of potassium currents in Chinese hamster ovary cells stably expressing the gene construct for the Kv1.5 potassium channel subunit were performed using the whole cell configuration of the patch clamp technique (Hamill et al., Pflugers Archiv 391:85, 1981). Cell lines expressing Kv1.5 were prepared using standard techniques known to those skilled in the art. Cells were plated on glass coverslips at a density of 2×10^4 cells/coverslip and used within 24-48 hours. Solutions used for electrophysiological recordings were as follows. Extracellular bathing solutions typically contain (in mM) 132 NaCl, 5.4 KCl, 1.8 CaCl2, 0.8 MgCl2, 10 HEPES, 5 glucose at pH 7.3. […] The coverslips were placed in a small chamber (volume ˜200 μl) on the mechanical stage of an inverted microscope and perfused (approximately 2 ml/min) with extracellular recording solution. Drug was applied using a series of narrow-bore glass capillary tubes (inner diameter ˜100 μm) positioned approximately 200 μm from the cell.
As soon as the current recording were stable, a compound representative of the present invention was superfused over the cell until steady-state block was observed. Using this technique, the effects of the compound on peak and steady-state current were determined at progressively increasing compound concentrations.
The testing results of selected compounds from Table 2 using this assay and the techniques described above are reported in Table 3 as the percent inhibition of Kv1.5 potassium channel currents at a single concentration of 0.1 μM.

[1] = read-out: Peak current inhibition at 0.1 μM (%)
[2] = read-out: Steady-state Current Inhibition at 0.1 μM (%)

Chain of Kv1.5 potassium channel (P22460 whole entry): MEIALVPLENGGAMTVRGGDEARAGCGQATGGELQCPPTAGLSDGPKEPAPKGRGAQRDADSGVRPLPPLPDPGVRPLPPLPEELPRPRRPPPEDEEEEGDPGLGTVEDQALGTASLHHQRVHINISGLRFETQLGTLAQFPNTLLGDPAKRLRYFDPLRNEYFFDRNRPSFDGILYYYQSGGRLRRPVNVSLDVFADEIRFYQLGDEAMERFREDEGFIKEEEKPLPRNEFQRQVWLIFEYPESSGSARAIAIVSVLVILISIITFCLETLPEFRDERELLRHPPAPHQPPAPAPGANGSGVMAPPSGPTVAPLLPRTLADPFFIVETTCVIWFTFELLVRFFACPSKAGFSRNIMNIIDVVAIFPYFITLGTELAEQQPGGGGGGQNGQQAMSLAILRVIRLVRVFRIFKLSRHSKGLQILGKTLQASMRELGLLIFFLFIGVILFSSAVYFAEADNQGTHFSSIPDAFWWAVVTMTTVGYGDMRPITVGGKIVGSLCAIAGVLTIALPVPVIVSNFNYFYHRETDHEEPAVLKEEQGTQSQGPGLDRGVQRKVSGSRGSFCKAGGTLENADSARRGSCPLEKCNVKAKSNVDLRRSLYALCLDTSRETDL

Compound	inhibition at 0.1 µM [1]	inhibition at 0.1 µM [2]
CC(CC(=O)N(Cc1nccn1C)c1ccc2c(c1)C(NS(=O)(=O)c1ccc(F)cc1)CCC2)c1ccccc1 (centres unmarked) [Example 1]	42%	67%
C[C@H](CC(=O)N(Cc1nccn1C)c1ccc2c(c1)[C@@H](NS(=O)(=O)c1cccc(Cl)c1)CCC2)c1ccccc1 [Example 2]	86%	96%
C[C@H](CC(=O)N(Cc1nccn1C)c1ccc2c(c1)[C@@H](NS(=O)(=O)c1ccc(F)c(Cl)c1)CCC2)c1ccccc1 [Example 3]	84%	93%
C[C@H](CC(=O)N(Cc1nccn1C)c1ccc2c(c1)[C@@H](NS(=O)(=O)c1ccccc1)CCC2)c1ccccc1 [Example 4]	86%	89%
C[C@@H](CC(=O)N(Cc1nccn1C)c1ccc2c(c1)[C@@H](NS(=O)(=O)c1ccccc1)CCC2)c1ccccc1 [Example 5]	45%	78%
C[C@@H](CC(=O)N(Cc1nccn1C)c1ccc2c(c1)[C@@H](NS(=O)(=O)c1cccc(Cl)c1)CCC2)c1ccccc1 [Example 6]	30%	81%
C[C@@H](CC(=O)N(Cc1nccn1C)c1ccc2c(c1)[C@@H](NS(=O)(=O)c1ccc(F)cc1)CCC2)c1ccccc1 [Example 9]	53%	61%
C[C@@H](CC(=O)N(Cc1nccn1C)c1ccc2c(c1)[C@H](NS(=O)(=O)c1ccccc1)CCC2)c1ccccc1 [Example 11]	76%	91%
C[C@H](CC(=O)N(Cc1nccn1C)c1ccc2c(c1)[C@@H](NS(=O)(=O)c1cccc(F)c1)CCC2)c1ccccc1 [Example 12]	68%	85%
C[C@@H](CC(=O)N(Cc1nccn1C)c1ccc2c(c1)[C@H](NS(=O)(=O)c1cccc(F)c1)CCC2)c1ccccc1 [Example 16]	88%	100%
C[C@@H](CC(=O)N(Cc1nccn1C)c1ccc2c(c1)[C@H](NS(=O)(=O)c1cccc(Cl)c1)CCC2)c1ccccc1 [Example 17]	84%	97%
COc1ccc(S(=O)(=O)N[C@H]2CCCc3ccc(N(Cc4nccn4C)C(=O)C[C@@H](C)c4ccccc4)cc32)cc1 [Example 18]	72%	84%
C[C@@H](CC(=O)N(Cc1nccn1C)c1ccc2c(c1)[C@H](NS(=O)(=O)c1cccs1)CCC2)c1ccccc1 [Example 19]	53%	79%

Further lines, results first:

inhibition at 0.1 µM [1]	inhibition at 0.1 µM [2]	Compound
52%	64%	Cc1ncc(CN(C(=O)C[C@@H](C)c2ccccc2)c2ccc3c(c2)[C@@H](NS(=O)(=O)c2cccc(F)c2)CCC3)n1C(C)C [Example 20]
58%	67%	Cc1ncc(CN(C(=O)C[C@@H](C)c2ccccc2)c2ccc3c(c2)[C@@H](NS(=O)(=O)c2ccccc2)CCC3)n1C(C)C [Example 21]
75%	90%	Cc1cccc(CN(C(=O)C[C@@H](C)c2ccccc2)c2ccc3c(c2)[C@@H](NS(=O)(=O)c2ccccc2)CCC3)n1 [Example 23]
48%	65%	Cc1cccc(CN(C(=O)C[C@@H](C)c2ccccc2)c2ccc3c(c2)[C@@H](NS(=O)(=O)c2ccc(F)c(Cl)c2)CCC3)n1 [Example 24]
26%	50%	Cc1cccc(CN(C(=O)C[C@H](C)c2ccccc2)c2ccc3c(c2)[C@H](NS(=O)(=O)c2ccccc2)CCC3)n1 [Example 25]
52%	76%	C[C@@H](CC(=O)N(Cc1nccn1C)c1ccc2c(c1)[C@H](NS(=O)(=O)c1cccc(F)c1)CCC2)c1ccc(F)cc1 [Example 26]
